Assay results published in US12589099B2 (priority 2021, dated 2026).

Key:
[1] = test system: moderate traumatic brain injury (TBI) induced by controlled cortical impact (CCI); experiment: Novel object recognition (NOR) test after TBI; format: in vivo, male Wistar rats
Experimental: FIG. 2: The figure illustrates functional tests that are carried out on healthy (sham surgery) no treatment, vehicle treated and ALPHA-1062 treated rats to assess sensorimotor and cognitive function after TBI. Sensimotor function tests. a) The figure depicts tests to assess the modified neurological severity score (mNSS). […] The animal is required to balance over a grid and the frequency of steps missing the grid are counted. This test assesses the functionality of the injured parietal cortex of the rat's brain. c) The adhesive removal test consists of applying adhesive tape on each forepaw of the animal and measuring the time-to-contact and the time-to-remove them. This behavior requires correct paw and mouth sensitivity (time-to-contact) and correct dexterity (time-to-remove). Cognitive function tests: a) This picture illustrates the Morris water maze that comprises that a rat is placed in a large circular pool (picture on the left) and is required to find an invisible platform that allows it to escape the water by using various visuo-spatial cues. This test is used to study spatial learning and memory and assesses hippocampal and select cortical brain region function. Usually, the path of the rat through the pool is tracked (picture on the right) and the time spend in the proximity of the platform as well as the time needed until the platform is found by the rat are measured. b) For the new/novel object recognition (NOR) test, after a habituation time in the test space (picture on far left) rats are given the opportunity to explore two identical objects (A) for a predetermined period of time (picture in the middle). After a delay, the animals are then presented with two objects to explore, one of which is the same as in the first exploration trial (A), the other a new object (B) (picture on the right). […]

[2] = test system: pathological p-Tau (AT8); experiment: p-Tau (AT8) immunostaining 35 days post-TBI; format: in vivo, male Wistar rats; conditions: 4.5 mg/kg IN twice daily, cortex, DG, CA3, CA1 of ipsilateral hemisphere
Text: Young adult (2-3 months) male Wistar rats were subjected to a moderate traumatic brain injury (TBI) induced by controlled cortical impact (CCI). Animal models of TBI including the CCI model and functional tests have been described in detail in peer reviewed publications (Xiong et al., 2013, Nat Rev Neurosci.; Zhang et al., 2016, J Neurosurg.; Zhang et al., 2016, Neurochem Int.; Zhang et al., 2021, J Neurotrauma). Injury consisted of a single impact at 4.0 m/sec, 2.5 mm deformation to the left parietal cortex. In addition, a group of animals was left healthy/not injured to serve as a healthy control.
The substance used in this study was ALPHA-1062 at 4.5 mg/kg. […]
Histological assessment was performed including quantitative image analysis protocols; followed by statistical analysis of the data. […]
For cell counting and quantitation NeuN+ cells were examined in the ipsilateral cortex, DG, CA1, and CA3 regions of the ipsilateral hippocampus. […] The number of BrdU+ cells (red-fluorophore) and NeuN (green-fluorophore)/BrdU-colabeled cells (yellow after merge) were counted. […] The immune-positive cells were determined and divided by the measured areas and presented as numbers per square mm. […] Tau or p-Tau immunoreactive areas including cortex, dentate gyrus, CA3 and CA1 regions of the ipsilateral hemisphere were imaged and quantified by Image J software (NIH).

`COc1ccc2c3c1O[C@H]1C[C@@H](OC(=O)c4ccccc4)C=C[C@@]31CCN(C)C2` [ALPHA-1062, (4aS,6R,8aS)-5,6,9,10,11,12-hexahydro-3-methoxy-11-methyl-4aH-[1]benzofuro[3a,3,2-ef][2]benzazepin-6-ol benzoate] was tested. Which “NOR, percentage of time spent exploring novel object (B) vs familiar object” value ([1]; 4.5 mg/kg IN twice daily, 5 weeks after TBI) did it give?
The value was “statistically significant preference for the novel object”.

What about the “Novel Object Recognition, performance over SHAM” value ([1]; rats after TBI, compared to healthy sham animals) of the same compound?
Its value is “equivalent to”.

And the “Novel Object Recognition, performance over VEHICLE” value ([1]; rats after TBI, compared to vehicle treatment)?
The value was “superior”.

What about the “levels of p-Tau compared to vehicle controls” value [2] of the same compound?
The value was “significantly reduced levels of p-Tau”.
